Drawing on patent publication US12653809B2, “Urea, amide, and substituted heteroaryl compounds for CBL-B inhibition” (Nurix Therapeutics, Inc., priority 2019, dated 2026), this text covers IC50 for 13 molecules.

Like-named read-outs stand apart in the source and are kept apart here.

This assay deals with T1, Cbl-b (truncated variant, UniProt number Q13191) (Homo sapiens, UniProt Q13191).
T1 construct: made in house
Description: Cbl-b activity assay (TR-FRET, interaction of Cbl-b with UbcH5B-Ub). Type of assay: biochemical. For orientation: In TR-FRET formats the signal depends on donor and acceptor labels being close together.

The mark [1] stands for this setting: high conditions: 100 mM NaCl, 60 nM Src kinase, 12 nM Cbl-b, read-out: Cbl-b activity IC50.
[2] abbreviates: Biological Example 1A, low or high conditions not stated, read-out: IC50 values in the Cbl-b inhibition assay of Biological Example 1A.

T1 sequence (Q13191 36-427): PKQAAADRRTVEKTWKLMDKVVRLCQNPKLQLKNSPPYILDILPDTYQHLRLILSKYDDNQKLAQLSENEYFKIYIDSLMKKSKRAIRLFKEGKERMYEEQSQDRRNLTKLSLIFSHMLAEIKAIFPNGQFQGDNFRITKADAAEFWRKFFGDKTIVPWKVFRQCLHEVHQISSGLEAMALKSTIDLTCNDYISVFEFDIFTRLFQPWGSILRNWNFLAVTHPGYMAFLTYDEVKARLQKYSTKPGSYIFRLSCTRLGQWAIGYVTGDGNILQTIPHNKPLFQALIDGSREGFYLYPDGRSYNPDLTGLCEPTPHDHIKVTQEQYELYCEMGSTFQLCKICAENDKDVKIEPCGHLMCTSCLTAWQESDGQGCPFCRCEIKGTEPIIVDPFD

`CC1CN(C(=O)Nc2cccc([C@H](C)Sc3nncn3C)c2)CC1CO` (stereo partly drawn) [Example 54, 3-(hydroxymethyl)-4-methyl-N-(3-((S)-1-((4-methyl-4H-1,2,4-triazol-3-yl)thio)ethyl)phenyl)pyrrolidine-1-carboxamide]: the IC50 (as a rule, the concentration at which inhibition is half-maximal) under setting [1] is not below 5 µM.

Consider `C[C@H](Sc1nncn1C)c1cccc(NC(=O)N2CCCCC2)c1` [Example 124, (S)—N-(3-(1-((4-methyl-4H-1,2,4-triazol-3-yl)thio)ethyl)phenyl)piperidine-1-carboxamide], for which, under setting [1], the IC50 was not below 5 µM. With `C[C@H](Sc1nncn1C)c1cccc(-n2ncc(-c3cccc(C(N)=O)c3)n2)c1` [Example 95, (S)-3-(2-(3-(1-(4-methyl-4H-1,2,4-triazol-3-ylthio)ethyl)phenyl)-2H-1,2,3-triazol-4-yl)benzamide], the IC50 lay in the range of 0.1 to 1 µM under setting [2] and 0.1 to 1 µM under setting [1]. Regarding `C[C@H](Sc1nncn1C)c1cccc(-n2ncc(-c3cccc(Cl)c3)n2)c1` [Example 78, 4-(3-chlorophenyl)-2-[3-[(1S)-1-[(4-methyl-4H-1,2,4-triazol-3-yl)sulfanyl]ethyl]phenyl]-2H-1,2,3-triazole], the IC50 under setting [1] is 1 to 5 µM.

For `Cn1cnnc1CC1(c2cccc(C(=O)Nc3cccc(C4CC4)n3)c2)COC1` [Example 37, N-(6-cyclopropylpyridin-2-yl)-3-(3-((4-methyl-4H-1,2,4-triazol-3-yl)methyl)oxetan-3-yl)benzamide], the IC50 runs as follows: under setting [2], not below 5 µM; under setting [1], not below 5 µM.

Turning to `C[C@H](Sc1nncn1C)c1cccc(NC(=O)Nc2ccccc2)c1` [Example 6, (S)-1-(3-(1-((4-methyl-4H-1,2,4-triazol-3-yl)thio)ethyl)phenyl)-3-phenylurea], the IC50 under setting [1] was not below 5 µM. On to `CNC(=O)c1ccc(-c2cnn(-c3cccc([C@H](C)Sc4nncn4C)c3)n2)cc1` [Example 82, (S)—N-methyl-4-(2-(3-(1-(4-methyl-4H-1,2,4-triazol-3-ylthio)ethyl)phenyl)-2H-1,2,3-triazol-4-yl)benzamide], for which the IC50 lay within 1 to 5 µM under setting [2] and 1 to 5 µM under setting [1]. As to `CNC(=O)C1(C(F)(F)F)CCN(C(=O)Nc2cccc([C@H](C)Cc3nncn3C)c2)C1` (stereo partly drawn) [Example 20, N^3-methyl-N^1-(3-((R)-1-(4-methyl-4H-1,2,4-triazol-3-yl)propan-2-yl)phenyl)-3-(trifluoromethyl)pyrrolidine-1,3-dicarboxamide], the IC50 under setting [1] was in the range of 0.1 to 1 µM. As to `Cn1cnnc1CC1(c2cccc(N3CC4C(C(F)(F)F)CCN4C3=O)c2)COC1` (stereo not shown) [Example 32, 2-(3-(3-((4-methyl-4H-1,2,4-triazol-3-yl)methyl)oxetan-3-yl)phenyl)-7-(trifluoromethyl)hexahydro-3H-pyrrolo[1,2-c]imidazol-3-one], the IC50 was in the range of 1 to 5 µM under setting [2] and 1 to 5 µM under setting [1]. With `C[C@H](Sc1nncn1C)c1cccc(NC(=O)Nc2ccccn2)c1` [Example 2, (S)-1-(3-(1-((4-methyl-4H-1,2,4-triazol-3-yl)thio)ethyl)phenyl)-3-(pyridin-2-yl)urea], the IC50 is, setting by setting: under setting [2], 0.1 to 1 µM; (low conditions: 50 mM NaCl, 30 nM Src kinase, 12 nM Cbl-b, read-out: Cbl-b activity IC50) 0.1 to 1 µM. Regarding `C[C@H](Cc1nncn1C)c1cccc(-c2cc(-c3ccccn3)n[nH]2)c1` [Example 105, (R)-2-(5-(3-(1-(4-methyl-4H-1,2,4-triazol-3-yl)propan-2-yl)phenyl)-1H-pyrazol-3-yl)pyridine], the IC50 under setting [1] was in the range of 0.1 to 1 µM. Same read-out and setting: the figure for `C[C@H](Sc1nncn1C)c1cccc(NC(=O)N2CCc3ccccc32)c1` [Example 7, (S)—N-(3-(1-((4-methyl-4H-1,2,4-triazol-3-yl)thio)ethyl)phenyl)indoline-1-carboxamide] is not below 5 µM. For the molecule `C[C@H](Sc1nncn1C)c1cccc(-n2ncc(-c3ccccc3)n2)c1` [Example 99, (S)-2-(3-(1-((4-methyl-4H-1,2,4-triazol-3-yl)thio)ethyl)phenyl)-4-phenyl-2H-1,2,3-triazole], the IC50 lay in the range of 0.1 to 1 µM under setting [2] and 0.1 to 1 µM under setting [1].
